Positions of bridges follow the written chain, without caps; N, C: chain ends. Residues, ends and D or L forms follow the SMILES beside them. Chains are numbered I, II in the order given. No end group written: not given here.
What was measured:
[1] = Circular dichroism: helix content and θ222/θ208 ratio; type: physicochemical; conditions: CD, peptide 8 μM; for helix content in 20% TFE: room temperature, from MRE at 222 nm; for helix content in 20% TFE / ratio θ222/θ208 in TFE: 20% TFE; for ratio θ222/θ208 in TFE / ratio θ222/θ208 in lipids / ratio θ222/θ208 in buffer: <0.8 monomeric, >1.0 oligomeric state; for helix content in DOPG/Chol / ratio θ222/θ208 in lipids: DOPG/Chol 60/40 LUVs; for helix content in DOPG/Chol: P/L 0.05, from MRE at 222 nm; for ratio θ222/θ208 in lipids: P/L 0.05; for helix content in buffer: sodium phosphate 5 mM pH 7.4, room temperature, from MRE at 222 nm (Chakrabartty et al.)
Source text: The circular dichroism (CD) analysis was used to reveal changes of the secondary structure with respect to the parent peptide in different experimental conditions (Figure 7). […] The helix content is probably underscored because oligomerization processes are taking place in this condition. The CD spectra were also obtained in presence of DOPG/Chol.
Figure 7 Circular dichroism spectra of gH625, gH625-H7 and gH625-G7 in buffer (A), 20% TFE (B) and DOPG/Chol 60/40 (mol/mol) LUVs (C). Peptide concentration used is 8 μM in all conditions tested and the peptide/lipid ratio is 0.05 in condition C.
The ratio of the ellipticities at 222 and 208 nm can be utilized to distinguish between monomeric and oligomeric states of helices, [49]; when the ratio θ222/θ208 is lower than 0.8, the peptide is essentially in its monomeric state, and when the ratio exceeds the value of 1.0, it is in its oligomeric state. The data reveal that in presence of TFE and of lipids, gH625 adopts an α-helical conformation with the monomer/oligomer equilibrium shifted toward the oligomeric state with a ratio θ222/θ208 of approximately 0.9 in both conditions, while in buffer the ratio decreases to 0.5 indicating a monomeric state. […] (Figure 7B,C). We repeated the experiment after centrifugation to remove eventual precipitated peptides from solution, however, the aggregates were molecular in size, and centrifugation had no effect on the spectra. The same analysis were performed on gH625-H7. The peptide adopts an α-helical conformation also in buffer, with a ratio θ222/θ208 of approximately 0.7, 0.9 and 1.2 in buffer, TFE and lipids.
CD spectra were recorded in a 1.0 or 0.1 cm quartz cell at room temperature using a Jasco J-715 spectropolarimeter. The spectra are an average of 3 consecutive scans from 260 to 195 nm, recorded with a band width of 3 nm, a time constant of 16 s, and a scan rate of 10 nm/min. Spectra were recorded and corrected for the background contributions by substracting blank samples. Mean residue ellipticities (MRE) were calculated using the expression MRE = Obsd/(lcn), where Obsd is the ellipticity measured in millidegrees, l is the path length of the cell in cm, c is the peptide concentration in mol/l, and n is the number of amino acid residues in the peptide. The peptide concentration was 8 μM both in buffer (sodium phosphate 5 mM pH 7.4) and at different percentages of TFE. Peptide samples in DOPG/Chol (60/40 mol/mol) were prepared using the following protocol[32]: all peptides were first dissolved in TFE; immediately after preparation, the peptide solution was added to an equal volume of a chloroform/methanol solution containing the appropriate lipid concentration; solutions were dried with a nitrogen gas stream and lyophilized overnight; the dry samples were rehydrated with buffer to yield a final peptide concentration of 8 μM with a P/L ratio of 0.05 and extruded. The percentage of helix was calculated from measurements of their mean residue ellipticity at 222 nm[47]. We used [ϑ]222 values of 0 and −40.000(1–2.5/n) deg cm^2 dmol^−1 per amino acid residue for 0% and 100% helicity; n is the number of amino acid residues.

[2] = Peptide aggregation, Thioflavin T (ThT) fluorescence; type: physicochemical; conditions: ThT 25 μM, 0.1 mM DOPG/Chol 60/40 LUVs, 100 mM NaCl, 10 mM Tris–HCl pH 7.4, 25 °C
Procedure: Figure 4 Panel A reports the quenching of tryptophan by acrylamide. Stern-Volmer plots of acrylamide quenching of gH625, gH625-H7, gH625-G7 in buffer (closed symbols) and in LUVs composed of DOPG/Chol 60/40 (mol/mol) (open symbols). Peptide concentration is 4 μM. Panel B reports the […] as a function of the peptide/lipid ratio of gH625, gH625-H7, gH625-G7 in buffer (closed symbols) and in 0.1 mM LUVs composed of DOPG/Chol 60/40 (mol/mol) (open symbols).
The three peptides are not aggregated in buffer as evidenced by the fact that the fluorescence remained unaltered after the addition of the peptides (see closed symbols). On the contrary, they all caused a progressive aggregation in LUVs as the fluorescence change increased dramatically.
Peptide aggregation was monitored using ThioflavinT (ThT), which combines rapidly with aggregated peptides producing a new excitation maximum at 450 nm (slit width, 5 nm) and an enhanced emission at 482 nm (slit width, 5 nm)[43]. This experiment was conducted in LUVs (final phospholipid concentration of 0.1 mM) and buffer containing 25 μM ThT in 100 mM NaCl, 10 mM Tris–HCl, pH 7.4. Fluorescence was measured before and after the addition of peptides. In particular, we tested the following peptide concentrations 0.005, 0.01, 0.015, 0.02, 0.03, 0.04, 0.05 and 0.07 mM at 25 °C. Aggregation (A) was determined according to the following equation7 %A=(Ff−F0)/(Fmax−F0)×100 where Ff is the value of fluorescence after peptide addition, F0 the initial fluorescence in the absence of peptide and Fmax is the fluorescence maximum obtained immediately after peptide addition. Kinetic data were obtained at a concentration of 4 μM.

| Compound | helix content in 20% TFE [1] | ratio θ222/θ208 in TFE [1] | helix content in DOPG/Chol [1] [%] | ratio θ222/θ208 in lipids [1] | helix content in buffer [1] [%] | peptide aggregation in LUVs [2] | ratio θ222/θ208 in buffer [1] |
| --- | --- | --- | --- | --- | --- | --- | --- |
| CC[C@H](C)[C@H](NC(=O)[C@H](CC(C)C)NC(=O)[C@H](C)NC(=O)[C@H](CC(N)=O)NC(=O)[C@H](Cc1ccc(O)cc1)NC(=O)[C@H](Cc1c[nH]cn1)NC(=O)[C@H](C)NC(=O)[C@H](Cc1c[nH]c2ccccc12)NC(=O)[C@H](CCCNC(=N)N)NC(=O)[C@@H](NC(=O)[C@H](CC(C)C)NC(=O)[C@@H](NC(=O)[C@H](CO)NC(=O)[C@H](C)NC(=O)[C@H](CC(C)C)NC(=O)CNC(=O)[C@@H](N)Cc1c[nH]cn1)[C@@H](C)O)[C@@H](C)O)C(=O)N[C@@H](CCCNC(=N)N)C(=O)N[C@@H](C)C(=O)N[C@@H](Cc1ccccc1)C(=O)NCC(=O)NCC(=O)NCC(=O)N[C@@H](CCCCN)C(=O)N[C@@H](CCCCN)C(=O)N[C@@H](CCCCN)C(=O)N[C@@H](CCCCN)C(N)=O [gH625-G7] (H-HGLASTLTRWAHYNALIRAFGGGKKKK-NH2) | 36% | 0.7 | 55 | 1.0 | 7 | oligomerize significantly |  |
| CC[C@H](C)[C@H](NC(=O)[C@H](CC(C)C)NC(=O)[C@H](C)NC(=O)[C@H](CC(N)=O)NC(=O)[C@H](Cc1ccc(O)cc1)NC(=O)[C@H](Cc1c[nH]cn1)NC(=O)[C@H](C)NC(=O)[C@H](Cc1c[nH]c2ccccc12)NC(=O)[C@H](CCCNC(=N)N)NC(=O)[C@@H](NC(=O)[C@H](CC(C)C)NC(=O)[C@@H](NC(=O)[C@H](CO)NC(=O)[C@H](C)NC(=O)[C@H](CC(C)C)NC(=O)CNC(=O)[C@@H](N)Cc1c[nH]cn1)[C@@H](C)O)[C@@H](C)O)C(=O)N[C@@H](CCCNC(=N)N)C(=O)N[C@@H](C)C(=O)N[C@@H](Cc1ccccc1)C(N)=O [gH625] (H-HGLASTLTRWAHYNALIRAF-NH2) | 22% | approximately 0.9 | 37 | approximately 0.9 | 5 | lower aggregation at low peptide/lipid ratio | 0.5 |
| I: HGLASTLTRWAHYNALIRAFGCGKKKK-NH2 / II: HGLASTLTRWAHYNALIRAFGCGKKKK-NH2 (disulfide I:22-II:22) [gH625-H7] | approximately 20% | approximately 0.9 |  | ~1.2 | 8 | oligomerize significantly | approximately 0.7 |
